Experimental data published in patent US10669270B2, “Amide-sulfamide derivatives, compositions, and uses related to CXCR4 inhibition” (Emory University, priority 2016, dated 2020).

How the values were obtained:
[1] = molecular target: T1, CXCR4 (Homo sapiens, UniProt P61073); test: Primary binding affinity screening (competition with biotinylated TN14003 on MDA-MB-231 cells); conditions: for potency compared with AMD3100: EC relative to AMD3100; for EC: MDA-MB-231 cells, compounds at 1, 10, 100, or 1000 nM, biotinylated TN14003
T1 construct: endogenous in cells; host or cells: MDA-MB-231
T1 sequence (P61073 whole entry): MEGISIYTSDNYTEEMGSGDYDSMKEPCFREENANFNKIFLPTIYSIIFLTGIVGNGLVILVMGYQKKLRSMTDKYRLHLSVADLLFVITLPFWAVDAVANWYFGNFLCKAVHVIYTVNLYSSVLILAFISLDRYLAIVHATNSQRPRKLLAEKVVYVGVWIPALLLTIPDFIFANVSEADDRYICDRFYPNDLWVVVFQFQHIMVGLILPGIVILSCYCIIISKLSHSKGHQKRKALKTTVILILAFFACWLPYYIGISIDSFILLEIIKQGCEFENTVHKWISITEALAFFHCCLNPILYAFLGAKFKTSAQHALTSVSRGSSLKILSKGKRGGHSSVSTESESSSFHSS
Method: For binding affinity assay, 2×10^4 MDA-MB-231 cells in 300 μL of cell culture medium were seeded in an 8-well slide chamber 2 days before the experiments were conducted. Various concentrations of different compounds (1, 10, 100, or 1000 nM) were added to the separate wells and incubated for 10 minutes at room temperature, and then the cells were fixed in 4% ice-cold paraformaldehyde. The cells were rehydrated in phosphate-buffered saline (PBS). The slides were subsequently incubated for 30 minutes at room temperature with 0.05 μg/mL biotinylated TN14003, washed three times with PBS, and incubated in streptavidin-rhodamine (1:150 dilution; Jackson ImmunoResearch Laboratories, West Grove, Pa.) for 30 minutes at room temperature. Finally, the slides were washed with PBS and mounted in an anti-fade mounting solution (Molecular Probes, Eugene, Oreg.), and the samples were analyzed on a Nikon Eclipse E800 microscope.

Row | Compound | melting point | potency compared with AMD3100 [1] | EC [1]
1 | O=C(NCc1ccc(CNS(=O)(=O)c2ccccc2)cc1)c1cccnc1 [IIIq, N-(4-(phenylsulfonamidomethyl)benzyl)nicotinamide] | 109 to 111 °C | – | –
2 | O=C(NCc1ccc(CNS(=O)(=O)c2ccccc2)cc1)c1ccncc1 [IIIr, N-(4-(phenylsulfonamidomethyl)benzyl)isonicotinamide] | 154 to 156 °C | – | –
3 | O=C(NCc1ccc(CNS(=O)(=O)c2ccccc2)cc1)c1ccccc1Cl [IIIk, 2-Chloro-N-(4-(phenylsulfonamidomethyl)benzyl)benzamide] | 116 to 118 °C | – | –
4 | Cc1ccc(C(=O)NCc2ccc(CNS(=O)(=O)c3ccccc3)cc2)cc1 [IIId, 4-Methyl-N-(4-(phenylsulfonamidomethyl)benzyl)benzamide] | 188 to 190 °C | – | –
5 | Cc1cccc(C(=O)NCc2ccc(CNS(=O)(=O)c3ccccc3)cc2)c1 [IIIc, 3-Methyl-N-(4-(phenylsulfonamidomethyl)benzyl)benzamide] | 112 to 114 °C | – | –
6 | O=C(NCc1ccc(CNS(=O)(=O)c2ccccc2)cc1)c1ccc(F)cc1 [IIIj, 4-Fluoro-N-(4-(phenylsulfonamidomethyl)benzyl)benzamide] | – | 1000 fold | 1 nM
7 | COc1ccc(C(=O)NCc2ccc(CNS(=O)(=O)c3ccccc3)cc2)cc1 [IIIg, 4-Methoxy-N-(4-(phenylsulfonamidomethyl)benzyl)benzamide] | 164 to 166 °C | – | –
8 | COc1ccccc1C(=O)NCc1ccc(CNS(=O)(=O)c2ccccc2)cc1 [IIIe, 2-Methoxy-N-(4-(phenylsulfonamidomethyl)benzyl)benzamide] | 123 to 125 °C | 1000 fold | 1 nM
9 | O=C(NCc1ccc(CNS(=O)(=O)c2ccccc2)cc1)c1c(Cl)cc(Cl)cc1Cl [IIIp, 2,4,6-Trichloro-N-(4-(phenylsulfonamidomethyl)benzyl)benzamide] | 158 to 160 °C | – | –
10 | O=C(NCc1ccc(CNS(=O)(=O)c2ccccc2)cc1)c1cccc(Cl)c1 [IIIm, 3-Chloro-N-(4-(phenylsulfonamidomethyl)benzyl)benzamide] | 114 to 116 °C | – | –
11 | COc1cccc(C(=O)NCc2ccc(CNS(=O)(=O)c3ccccc3)cc2)c1 [IIIf, 3-Methoxy-N-(4-(phenylsulfonamidomethyl)benzyl)benzamide] | 120 to 122 °C | – | –
12 | Cc1ccccc1C(=O)NCc1ccc(CNS(=O)(=O)c2ccccc2)cc1 [IIIb, 2-Methyl-N-(4-(phenylsulfonamidomethyl)benzyl)benzamide] | 129 to 131 °C | 1000 fold | 1 nM
13 | Fluoro-N-(4-(phenylsulfonamidomethyl)benzyl)benzamide [IIIi] | – | 1000 fold | 1 nM
14 | O=C(NCc1ccc(CNS(=O)(=O)c2ccccc2)cc1)c1ccccc1F [IIIh, 2-Fluoro-N-(4-(phenylsulfonamidomethyl)benzyl)benzamide] | 122 to 124 °C | – | –
15 | O=C(NCc1ccc(CNS(=O)(=O)c2ccccc2)cc1)c1ccc([N+](=O)[O-])cc1 [IIIo, 4-Nitro-N-(4-(phenylsulfonamidomethyl)benzyl)benzamide] | 201 to 203 °C | – | –
16 | O=C(NCc1ccc(CNS(=O)(=O)c2ccccc2)cc1)c1ccc(Cl)cc1 [IIIn, 4-Chloro-N-(4-(phenylsulfonamidomethyl)benzyl)benzamide] | 182 to 184 °C | – | –

The remaining lines, values ahead:

Row | melting point | potency compared with AMD3100 [1] | EC [1] | Compound
17 | 225 to 227 °C | – | – | O=C(NCc1ccc(CNS(=O)(=O)c2ccc(F)cc2F)cc1)c1ncc[nH]1 [Ie, N-(4-((2,4-difluorophenylsulfonamido)methyl)benzyl)-1H-imidazole-2-carboxamide]
18 | 207 to 209 °C | – | – | Cc1ccc(S(=O)(=O)NCc2ccc(CNC(=O)c3ccc([N+](=O)[O-])cc3)cc2)cc1 [IIo, N-(4-((4-methylphenylsulfonamido)methyl)benzyl)-4-nitrobenzamide]
19 | 163 to 165 °C | – | – | Cc1ccc(S(=O)(=O)NCc2ccc(CNC(=O)c3ccncc3)cc2)cc1 [IIr, N-(4-((4-methylphenylsulfonamido)methyl)benzyl)isonicotinamide]
20 | 123 to 125 °C | – | – | Cc1ccc(S(=O)(=O)NCc2ccc(CNC(=O)c3cccc(C)c3)cc2)cc1 [IIc, 3-Methyl-N-(4-((4-methylphenylsulfonamido)methyl)benzyl)benzamide]
21 | 163 to 165 °C | – | – | O=C(NCc1ccc(CNS(=O)(=O)c2cccc(F)c2)cc1)c1cc2ccccn2n1 [Ih, N-(4-((3-fluorophenylsulfonamido)methyl)benzyl)pyrazolo[1,5-a]pyridine-2-carboxamide]
22 | 137 to 139 °C | – | – | Cc1ccc(S(=O)(=O)NCc2ccc(CNC(=O)c3cccc(F)c3)cc2)cc1 [IIi, 3-Fluoro-N-(4-((4-methylphenylsulfonamido)methyl)benzyl)benzamide]
23 | 192 to 194 °C | – | – | O=C(NCc1ccc(CNS(=O)(=O)c2ccc(F)c(F)c2)cc1)c1cnc2ccccn12 [Ii, N-(4-((3,4-difluorophenylsulfonamido)methyl)benzyl)imidazo[1,2-a]pyridine-3-carboxamide]
24 | 149 to 151 °C | – | – | O=C(NCc1ccc(CNS(=O)(=O)c2ccc3c(c2)CCO3)cc1)c1cccc2c1COC2 [Id, N-(4-((2,3-dihydrobenzofuran-5-sulfonamido)methyl)benzyl)-1,3-dihydroisobenzofuran-4-carboxamide]
25 | 138 to 140 °C | – | – | Cc1ccc(S(=O)(=O)NCc2ccc(CNC(=O)c3ccccc3F)cc2)cc1 [IIh, 2-Fluoro-N-(4-((4-methylphenylsulfonamido)methyl)benzyl)benzamide]
26 | 110 to 112 °C | – | – | Cc1ccc(S(=O)(=O)NCc2ccc(CNC(=O)c3cccc(Cl)c3)cc2)cc1 [IIm, 3-Chloro-N-(4-((4-methylphenylsulfonamido)methyl)benzyl)benzamide]
27 | 201 to 203 °C | – | – | Cc1ccc(S(=O)(=O)NCc2ccc(CNC(=O)c3ccc(Cl)cc3)cc2)cc1 [IIn, 4-Chloro-N-(4-((4-methylphenylsulfonamido)methyl)benzyl)benzamide]
28 | 147 to 149 °C | – | – | Cc1ccc(S(=O)(=O)NCc2ccc(CNC(=O)c3ccccc3C)cc2)cc1 [IIb, 2-Methyl-N-(4-((4-methylphenylsulfonamido)methyl)benzyl)benzamide]
29 | 138 to 140 °C | – | – | O=C(NCc1ccc(CNS(=O)(=O)c2ccccc2F)cc1)c1cc2ccccn2n1 [Ij, N-(4-((2-fluorophenylsulfonamido)methyl)benzyl)pyrazolo[1,5-a]pyridine-2-carboxamide]
30 | 180 to 182 °C | – | – | O=C(NCc1ccc(CNS(=O)(=O)c2ccc3c(c2)CCO3)cc1)c1cc2ccccn2n1 [Ib, N-(4-((2,3-dihydrobenzofuran-5-sulfonamido)methyl)benzyl)pyrazolo[1,5-a]pyridine-2-carboxamide]
31 | 130 to 132 °C | – | – | COc1cccc(C(=O)NCc2ccc(CNS(=O)(=O)c3ccc(C)cc3)cc2)c1 [IIf, 3-Methoxy-N-(4-((4-methylphenylsulfonamido)methyl)benzyl)benzamide]
32 | 154 to 156 °C | – | – | COc1ccccc1C(=O)NCc1ccc(CNS(=O)(=O)c2ccc(C)cc2)cc1 [IIe, 2-Methoxy-N-(4-((4-methylphenylsulfonamido)methyl)benzyl)benzamide]
33 | 143 to 145 °C | – | – | Cn1nccc1C(=O)NCc1ccc(CNS(=O)(=O)c2ccc3c(c2)CCO3)cc1 [Ic, N-(4-((2,3-dihydrobenzofuran-5-sulfonamido)methyl)benzyl)-1-methyl-1H-pyrazole-5-carboxamide]
34 | 180 to 182 °C | – | – | Cc1ccc(C(=O)NCc2ccc(CNS(=O)(=O)c3ccc(C)cc3)cc2)cc1 [IId, 4-Methyl-N-(4-((4-methylphenylsulfonamido)methyl)benzyl)benzamide]
35 | 147 to 149 °C | – | – | COc1ccc(C(=O)NCc2ccc(CNS(=O)(=O)c3ccc(C)cc3)cc2)cc1 [IIg, 4-Methoxy-N-(4-((4-methylphenylsulfonamido)methyl)benzyl)benzamide]
36 | 140 to 142 °C | – | – | Cc1ccc(S(=O)(=O)NCc2ccc(CNC(=O)c3ccccc3Cl)cc2)cc1 [IIk, 2-Chloro-N-(4-((4-methylphenylsulfonamido)methyl)benzyl)benzamide]
37 | – | – | 1 nM | O=C(NCc1ccc(CNS(=O)(=O)c2ccccc2)cc1)c1ccc(CNc2ncccn2)cc1 [N-(4-(phenylsulfonamidomethyl)benzyl)-4-((pyrimidin-2-ylamino)methyl)benzamide]
38 | 162 to 164 °C | – | – | Cc1ccc(S(=O)(=O)NCc2ccc(CNC(=O)c3ccccc3)cc2)cc1 [IIa, N-(4-((4-methylphenylsulfonamido)methyl)benzyl)benzamide]
39 | 188 to 190 °C | – | – | Cc1ccc(S(=O)(=O)NCc2ccc(CNC(=O)c3c(Cl)cc(Cl)cc3Cl)cc2)cc1 [IIp, 2,4,6-Trichloro-N-(4-((4-methylphenylsulfonamido)methyl)benzyl)benzamide]
40 | 120 to 122 °C | – | – | Cc1ccc(S(=O)(=O)NCc2ccc(CNC(=O)c3cccnc3)cc2)cc1 [IIq, N-(4-((4-methylphenylsulfonamido)methyl)benzyl)nicotinamide]
